Assay results: article PMC7961786, “Magic Peptide: Unique Properties of the LRR11 Peptide in the Activation of Leukotriene Synthesis in Human Neutrophils” (International Journal of Molecular Sciences, 2021)
“Also recorded” adds a separate entry of the source.

Columns and labels:
[1] = test system: human neutrophils; assay: Intracellular free Ca^2+ in neutrophils (Fluo-3); format: cell-based; details: Figure 9
Description: Figure 9 Effects of ODNs and LRR11 on intracellular concentration of free Ca^2+ in neutrophils. Fluo-3 AM-loaded neutrophils (1 × 10^6/mL) were cultured in fibrinogen-coated flat bottom plates in HBSS/HEPES medium supplemented or not with 1 µM LRR11, without additives or in the presence of 1 µM ODNs, at 37 °C, 5% CO2. Fluo-3 fluorescence signals (ex. 485 nm, em. 538 nm) were monitored with 2-min intervals. (A) Values represent the means ± SEM of fluorescence intensity increments in 7 min after the addition of stimulus (n = 3). * p < 0.05, ** p < 0.01, **** p < 0.001 compared with the control, as indicated by two-way ANOVA followed by Sidak’s multiple comparison test. (B) Representative blank corrected Fluo-3 fluorescence kinetic curves for control (square, black solid line), LRR11 (circle, black dotted line), A-CpG (square, red solid line) and LRR11_A-CpG mix (circle, red dotted line).
Intracellular Ca^2+ ions were detected by staining with Fluo-3, which is known to dramatically increase fluorescence after binding of calcium ions, was used. According to the manufacturer’s protocol, human neutrophils were incubated with 5 μM Fluo-3 AM ester (Thermo Fisher Scientific, Waltham, MA, USA) for 60 min at room temperature, followed by washing in PBS. Cells were then seeded in fibrinogen-coated 96-well plates (1 × 10^6/mL of HBSS/HEPES) and incubated at 37 °C in 5% CO2. Changes in fluorescence intensity upon excitation at 485 nm and emission at 538 nm were monitored at CLARIOstar fluorescence microplate reader for at least 60 min after stimulus injection, followed by data analysis using MARS Data Analysis Software, version 3.30 (both hardware and software are from BMG Labtech, Ortenberg, Germany).

[2] = test system: mouse-derived monocyte/macrophage cell line RAW 264.7; details: ref [9]; cited from earlier work
Description: (§1) In neutrophils, bacteria and pathogen-associated molecular patterns (PAMPs) that are expressed by microorganisms are recognized by Toll-like receptors (TLRs). In particular, the mechanisms of immunoregulatory activity of CpG-containing bacterial or synthetic DNA fragments include their interaction with TLR9 receptors, known as DNA sensors. Therefore, synthetic peptides that mimics DNA recognizing regions of the receptor can be effective modulators of neutrophil cell responses. The crystal structure of TLR9 was analyzed and it was predicted that leucine-rich repeats (L ...

[3] = test system: TLR9 signaling in RAW 264.7; details: ref [9]; cited from earlier work
Description: as §1

[4] = test system: CpG-ODNs; details: ref [8]; cited from earlier work
Description: as §1

[5] = test system: human neutrophils (PMNLs), 5-LOX product synthesis; assay: 5-LOX metabolite synthesis in human neutrophils stimulated with opsonized S. typhimurium (HPLC); format: cell-based

Substance | effect of LRR11 on calcium ion influx with/without ODNs ([1]; 1 µM LRR11 +/- 1 µM ODNs) | calcium influx ([1]; 1 µM LRR11 or 1 µM ODNs, Fluo-3, 37 °C, n = 3) | time course of cytoplasmic Ca^2+ concentration ([1]; 1 µM LRR11 or 1 µM ODNs) | effect on oligonucleotide internalization [2] | effect on TLR9 signaling [3] | binding to CpG-ODNs [4] | effect of LRR11 on 5-LOX product synthesis in combination with ODN or LPS ([5]; 1 µM LRR11 added simultaneously with 1 µM ODN or LPS, then opsonized S. typhimurium, Figure 1) | effect of LRR11 on FPS-ZM1 action on leukotriene synthesis ([5]; 1 µM LRR11 with ODN after 0.15 µM FPS-ZM1, Figure 3) | LTB4 accumulation, dependence on way of LRR11 addition ([5]; (1) LRR11 15 min before ODN, (2) simultaneously but independently, (3) 1-h pre-mixed) | effect on 5-LOX activity / leukotriene synthesis ([5]; ODN alone, 1 µM, 20 min, then opsonized S. typhimurium 15 min, Figure 1, five independent experiments in duplicate) | Σ 5-LOX metabolites ([5]; Table S1, 2×10^7 PMNLs, 15 min at 37 °C without or with 5 µM Chloroquine, then ODN, after 20 min 0.5×10^9 opsonized S. typhimurium for 15 min, mean ± SEM, three independent experiments) [ng/107 PMNLs]
QLRKLNLSFNYQKRVSFAHLSLAPSFGSLV [LRR11, 30 amino acid peptide from leucine-rich repeat of TLR9] | noticeable only in the absence of ODNs | potentiates calcium influx | ensures long-term maintenance of an increased cytoplasmic Ca^2+ concentration | decrease in the oligonucleotide internalization | attenuating of TLR9 signaling | can bind to the CpG-ODNs | does not significantly change the effects of G-rich ODN and lipopolysaccharides (LPS), but obviously enhances the effects of CpG-ODNs; also recorded: stimulated the formation of the 5-LOX products; also recorded: synergistically amplifying each other’s effects | its action is nullified in the presence of LRR11 peptide; also recorded: LRR11 abolished the effects of FPS-ZM1 and restored the level of leukotriene synthesis | only pathways (2) and (3) provide a significant effect on LTB4 accumulation | – | –
5′-tcgtcgttttcggcgcgcgccg-3′ (DNA TCGTCGTTTTCGGCGCGCGCCG; chemistry not fully specified) [C-CpG] | – | – | – | – | – | – | – | – | – | increased leukotriene synthesis | 42.1 ± 4.2
